Patent US20150073038A1 (Marina Biotech, Inc., priority 2009, published 2015)

Legend:
TNS dye assay for pKa = assay type: physicochemical; settings: pH 3.0 to 11.0, 30 min at 37° C.; for pKa: liposomes of the lipid with TNS dye in universal buffer, pH 3, liposome test sample, read-out: pKa as measured by TNS dye assay; for pKa as measured by TNS dye assay: liposome test sample
Description: To measure pH responsive fluorescence, a TNS/Liposome reaction mixture was prepared as follows: 16 μL of TNS at 1 mg/mL (dissolved in 20% DMF), 160 μL of liposome test sample at 1 mM and 3824 μL of H20. Briefly, in a Costar 96 well plate; 100 μL/well of 2× universal buffer was added (50 mM Citrate; 40 mM sodium phosphate; 40 mM ammonium acetate; 300 mM NaCl, the 2× buffer was titrated to different pHs, at 0.5 pH increments from pH 3.0 to pH 11.0 using NaOH or HCl). To each well containing the 100 of universal buffer, 100 μL of the TNS/Liposome reaction mixture is then added to achieve a final volume of 200 μL, a TNS concentration of 5.92 μM and a final lipid concentration of 20 μM per well. After 30 min at 37° C. the fluorescence was read at an excitation wavelength of 322 nm and emission wavelength of 431 nm. The pKa was determined at the pH corresponding to the midpoint between the maximum and the minimum fluorescence intensity, utilizing sigmoidal fit software.
TNS dye (2,6-TNS (2-(p-toluidinyl)naphthalene-6-sulfonic acid, sodium salt; Invitrogen T53; MW 335.4).

ApoB in Hep3B cells = assay: In vitro gene silencing activity, formulation with UsiRNA against ApoB in Hep3B cells, quantitative RT-PCR; assay type: cell-based; settings: UsiRNA DX10008, Hep3B, 24 h
Description: The methodology for determining the in vitro gene silencing activity of an activity-generating delivery molecule was as follows: Hep3B cells were transfected in triplicate, 96-well format with a formulation of the activity-generating delivery molecule and a UsiRNA against ApoB. After 24 h, cellular RNA was prepared and evaluated by quantitative RT-PCR for target ApoB and the normalizer 36B4 or GAPDH expression levels.
The in vitro activity was generated with a UsiRNA against ApoB in Hep3B cells.

Factor VII = assay: In vivo gene-silencing dose-response, UsiRNA against Factor VII in formulation, tail-vein injection; design: species or system mouse; settings: normal Balb/c mice, single tail-vein IV injection, serum F-VII at 48 hr post dose; dose as active UsiRNA per kg; formulated with cholesterol, C18:2-DAB-C16, DSPE-PEG2k 51:31:17:1 mole %
Description: In FIG. 1 is shown a chart of the gene-silencing dose-response in vivo mouse for a UsiRNA against Factor VII administered by tail-vein injection in a formulation including the activity-generating delivery molecule C18:2-DAP(N,N-diMe)-C18:2. The calculated ED50 was 30 μg/kg. The x-axis of FIG. 1 refers to mgA/kg which is by pharmaceutical convention the mg of active UsiRNA per kg body weight. Here it refers to the fraction of UsiRNA that is duplexed, and encapsulated or carried by the activity-generating delivery molecules.
Animals were each administered a single tail-vein IV injection, and sacrificed at 48 hr post dose for analysis of serum F-VII.
The activity-generating molecule C18:2-DAP(N,N-diMe)-C18:2 was formulated with cholesterol, a second activity-generating molecule C18:2-DAB-C16, and DSPE-PEG2k at concentrations of 51:31:17:1 mole %, respectively.

Factor VII mRNA = assay: In vivo gene knockdown in Balb/c mice, tail-vein injection of formulation with UsiRNA; design: species or system mouse; settings: DMPE-PEG2k 2 mole %, UsiRNA against Factor VII mRNA
Description: In vivo gene knockdown activity was generated in Balb/c mice administered by tail-vein injection with a formulation including the activity-generating delivery molecule and a UsiRNA against Factor VII mRNA.

[1] = DSC measurement of 2nd melting behavior; assay type: physicochemical; settings: heat/cool/heat cycle
Description: The 2nd melting behavior of activity-generating delivery molecules was assessed on a TA Instruments Q200 Differential Scanning calorimeter in a heat/cool/heat cycle by weighing 0.5 to 1.5 mg of the powder into an aluminum pan and heating to 175° C. at 20° C./min., cooling to −50° C. at 10° C./min., and heating to 200° C. at 20° C./min.
Without intending to be bound by any particular theory, the melting behavior of an activity-generating delivery molecule may relate to its ability to form lamellar, bilayer, or other ordered structures which can be useful for carrying an active agent to interact with, and enter a cellular compartment to generate pharmacological or biological activity. […] A substance having less ordered structures may provide greater membrane fusion ability which can be needed for delivery of the active agent to a cell. Thus, differential scanning calorimetry can be used to distinguish the properties of compounds with certain significant thermotropic phases or transitions from compounds with different properties and less significant thermotropic phases or transitions.

[2] = delivery molecule 25.00 mole %, CHOL 75.00 mole %
[3] = delivery molecule 33.33 mole %, DOPE 66.66 mole %
[4] = delivery molecule 50.00 mole %, CHOL 50.00 mole %
[5] = delivery molecule 50.00 mole %, DOPE 50.00 mole %
[6] = delivery molecule 66.66 mole %, CHOL 33.33 mole %
[7] = delivery molecule 66.66 mole %, DOPE 33.33 mole %
[8] = delivery molecule 75.00 mole %, DOPE 25.00 mole %
[9] = delivery molecule 25.00 mole %, DOPE 75.00 mole %
[10] = delivery molecule 33.33 mole %, CHOL 66.66 mole %
[11] = delivery molecule 75.00 mole %, CHOL 25.00 mole %

Row | pKa (TNS dye assay for pKa) | pKa as measured by TNS dye assay (TNS dye assay for pKa) | Structure (SMILES) | In vitro Gene Knockdown % (ApoB in Hep3B cells; [2]) | In vitro Gene Knockdown % (ApoB in Hep3B cells; [3]) | In vitro Gene Knockdown % (ApoB in Hep3B cells; [4]) | In vitro Gene Knockdown % (ApoB in Hep3B cells; [5]) | In vitro Gene Knockdown % (ApoB in Hep3B cells; [6]) | In vitro Gene Knockdown % (ApoB in Hep3B cells; [7]) | In vitro Gene Knockdown % (ApoB in Hep3B cells; [8]) | calculated ED50, gene silencing in vivo (Factor VII) | In vitro Gene Knockdown % (ApoB in Hep3B cells; [9]) | In vitro Gene Knockdown % (ApoB in Hep3B cells; [10]) | In vitro Gene Knockdown % (ApoB in Hep3B cells; [11]) | In vivo Gene Knockdown % (Factor VII mRNA; delivery molecule 49 mole %, CHOL 49 mole %) | In vivo Gene Knockdown % (Factor VII mRNA; delivery molecule 65.3 mole %, CHOL 32.7 mole %) | 2nd melting behavior, thermal transitions by differential scanning calorimetry [1]
1 | 5.8 | – | CCCCC/C=C\C/C=C\CCCCCCCCNC(=O)C(CN(C)C)NC(=O)CCCCCCC/C=C\C/C=C\CCCCC (stereo not drawn) | 6% | 86% | 19% | 87% | 19% | 81% | 18% | 0.03 mg/kg | – | – | – | – | – | –
2 | 6 | – | CCCCCCCC/C=C\CCCCCCCCNC(=O)C(CN)NC(=O)CCCCCCC/C=C\CCCCCCCC (stereo not drawn) [C18:1-DAP(NH3 + Cl—)-C18:1, N-(3-amino-1-((Z)-octadec-9-en-1-ylamino)-1-oxopropan-2-yl)oleamide] | 83% | 83% | 73% | 82% | 76% | 72% | 77% | – | 81% | 80% | 79% | – | – | –
3 | 4.9 | – | CCCCC/C=C\C/C=C\CCCCCCCCNC(=O)C(N)NC(=O)CCCCCCC/C=C\C/C=C\CCCCC (stereo not drawn) [C18:2-DAA-C18:2, (9Z,12Z)—N-(1-amino-2-((9Z,12Z)-octadeca-9,12-dien-1-ylamino)-2-oxoethyl) octadeca-9,12-dienamide] | – | – | – | – | – | – | – | – | – | – | – | – | – | –
4 | – | 5.3 | CCCCCC=CCC=CCCCCCCCC(=O)NC(CN(C)C)C(=O)NCCCCCCCCC=CCCCCCCCC (stereo not drawn) [C18:2-DAP(Me,Me)-C18:1] | 90% | 87% | 88% | 84% | 91% | 85% | 84% | – | 86% | 91% | – | – | – | –
5 | 7.6 | – | CCCCC/C=C\C/C=C\CCCCCCCCNC(=O)C(CN)NC(=O)CCCCCCC/C=C\C/C=C\CCCCC (stereo not drawn) [C18:2-DAP-C18:2, (9Z,12Z)—N-(3-amino-1-((9Z,12Z)-octadeca-9,12-dien-1-ylamino)-1-oxopropan-2-yl)octadeca-9,12-dienamide] | – | – | – | – | – | – | – | – | – | – | – | – | – | –
6 | – | – | CCCCC/C=C\C/C=C\CCCCCCCC(=O)NC(CN)C(=O)NCCCCCCCC/C=C\CCCCCCCC (stereo not drawn) [C18:2-Dap(NH3 + Cl—)-C18:1, (9Z,12Z)—N-(3-amino-1-((Z)-octadec-9-en-1-ylamino)-1-oxopropan-2-yl)octadeca-9,12-dienamide] | 64% | 83% | 56% | 83% | 61% | 69% | 48% | – | 85% | 62% | 52% | – | – | –
7 | – | 6.6 | CCCCC/C=C\C/C=C\CCCCCCCCNC(=O)C1CC(N(C)C)CN1C(=O)CCCCCCC/C=C\C/C=C\CCCCC (stereo not drawn) [C18:2-aminoPro(N—Me,N—Me)-C18:2] | 79% | 74% | 62% | 82% | 53% | 73% | 68% | – | 66% | 72% | 59% | 68% | 48% | –
8 | – | – | CCCCC/C=C\C/C=C\CCCCCCCCNC(=O)C(CCN)NC(=O)CCCCCCC/C=C\C/C=C\CCCCC (stereo not drawn) [C(18:2)oleoyl-DAB-C(18:2)alkenylamino, (9Z,12Z)—N-(4-amino-1-((9Z,12Z)-octadcca-9,12-dien-1-ylamino)-1-oxobutan-2-yl) octadeca-9,12-dienamide] | – | – | – | – | – | – | – | – | – | – | – | – | – | complete lack of thermal transition peaks
9 | – | – | CCCCCCCCCCCCCCCCCCNC(=O)C(CCNC(=N)N)NC(=O)CCCCCCCCCCCCCCCCC (stereo not drawn) [CH3(CH2)16(CO)-norArg-NH(CH2)17CH3, reference compound] | – | – | – | – | – | – | – | – | – | – | – | – | – | presence of significant thermal or melting transitions
